Reference: BindingDB's records for patent US12187713 (Betta Pharmaceuticals, 2025)

Target: Programmed cell death 1 ligand/protein 1 (Homo sapiens, UniProt Q9NZQ7+Q15116)
Test: PD-1/PD-L1 Binding Assay (Alphascreen)
Protocol: The assays were conducted in a standard black 384-well polystyrene plate with a final volume of 20 μL. Inhibitors were first serially diluted in DMSO and then added to the plate wells before the addition of other reaction components. The final concentration of DMSO in the assay was […]. Add 100 nL/well of compound to the 384 reaction plate (6008280, PerkinElmer) with Echo and centrifuge at 1000 rpm for 1 minute. Add 5 μL/well 4×PD-L1 solutions to the 384 reaction plate, centrifuge at 1000 rpm for 1 minute, and add 5 μL/well 4×PD-1 solutions, centrifuge at 1000 rpm for 1 minute, and incubate at 25° C. for 15 minutes. The concentrations of the compounds were 300, 100, 33.33, 11.11, 3.70, 1.23, 0.41, 0.137, 0.046, 0.015, 0 nM, respectively. Add 10 μL/well 2× Anti-6×His AlphaLISA Acceptor beads and Streptavidin Donor beads solution (PerkinElmer-AL356F) to the above 384 reaction plate, centrifuge at 1000 rpm for 1 minute, and incubate at 25° C. in the dark for 120 minutes. Read the AlphaLISA signal value using the Envision Reader. IC50 determination was performed by fitting the curve of percent control activity versus the log of the inhibitor concentration using the GraphPad Prism 8.0 software.

Programmed cell death 1 ligand/protein 1, sequence (Q9NZQ7 whole entry): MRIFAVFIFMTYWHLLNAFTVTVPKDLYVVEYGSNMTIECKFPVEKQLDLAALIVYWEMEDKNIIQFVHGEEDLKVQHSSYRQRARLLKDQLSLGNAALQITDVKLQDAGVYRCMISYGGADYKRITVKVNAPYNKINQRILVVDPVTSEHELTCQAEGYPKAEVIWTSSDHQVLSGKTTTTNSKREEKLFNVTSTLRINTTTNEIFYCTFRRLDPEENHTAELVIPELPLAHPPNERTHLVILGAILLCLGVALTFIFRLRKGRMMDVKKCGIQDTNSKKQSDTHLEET
Programmed cell death 1 ligand/protein 1, sequence (Q15116 whole entry): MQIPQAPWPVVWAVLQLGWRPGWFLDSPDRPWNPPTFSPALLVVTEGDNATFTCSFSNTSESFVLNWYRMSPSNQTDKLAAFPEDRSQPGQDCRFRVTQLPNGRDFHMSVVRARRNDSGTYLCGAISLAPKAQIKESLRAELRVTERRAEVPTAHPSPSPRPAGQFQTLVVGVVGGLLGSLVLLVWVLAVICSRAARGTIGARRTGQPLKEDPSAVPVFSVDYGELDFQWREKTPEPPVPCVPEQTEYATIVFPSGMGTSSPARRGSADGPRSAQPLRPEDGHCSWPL

## Cc1c(C2=NC3C=C(CN4CCC4(C)N)C(OC(F)F)=CC3O2)cccc1-c1cccc(-c2nc3cc(CN4CCC[C@H]4C(=O)O)c(OC(F)F)cc3o2)c1C (some centres not stated) [US12187713, Example 40]
  IC50: 2.5 nM

## CCCNCCCN(C)CC1=CC2N=C(c3cccc(-c4cccc(-c5nc6cc(CN7CCC[C@H]7C(=O)O)c(OC(F)F)cc6o5)c4C)c3C)OC2C=C1OC(F)F (some centres not stated) [US12187713, Example 53]
  IC50: 2.5 nM
